Experiments:
[1] = target: reverse transcriptase du HIV1 (Human immunodeficiency virus type 1 group M subtype B, UniProt P04585); test: Reverse transcriptase activity of HIV1 incubated with NP derivatives, tested immediately; type: biochemical; conditions: témoin virus 11924
Experimental: (§1) La technique de culture et de titrage de la reverse-transcriptase du HIV est rappelée ci-après : Des lymphocytes humains, préalablement activés par la PHA (phytohémagglutinine) sont incubés dans un milieu nutritif (RPMI 1640 + sérum de veau foetal + antibiotiques + β-mercaptoéthanol 10⁻⁵M + 2»g/ml polybrene + sérum anti-interféron 1/2000 + IL2 10%). Après centrifugation, le culot cellulaire est mis en présence du HIV1 (10.000 cpm/10⁶ cellules) pendant 1 heure à 37°. Après lavage et centrifugation, les cellules sont resuspendues dans du milieu nutritif. Les surnageants de culture cellulaire sont suivis pendant plusieurs jours pour leur activité reverse transcriptase. Ils sont centrifugés 7 minutes à 95000 tours et le culot est lysé par du Triton® 0,1% (produit Touzart et Matignon). Un mélange réactionnel est ajouté (Tris, DTT (dithiothreitol), MgCl₂, KCl, PolyA, Oligo dT, ³HTTP, H₂O) et après 1 heure d'incubation à 37°C, la réaction est arrêtée avec du pyrophosphate de sodium et de l'acide nucléique de levure est ajouté pour aider la précipitation. De l'acide trichloracétique (TCA) est ajouté et la solution est laissée 15 minutes à 4°C. Après filtration sous vide avec des filtres millipores 0.45 »m et plusieurs lavages avec du TCA (0.5%), on procède au rinçage à l'éthanol, au sèchage en étuve 37° et enfin au comptage.
Le HIV1 est incubé 1 heure à 37° en présence d'AcN (D23, 621, N5-12), d'anticorps anti-NP (TNP11) ou en présence des dérivés NP (DNP-glycine et DNP-lysine). L'activité reverse transcriptase du HIV1 est testée immédiatement (cas des dérivés DNP-glycine et DNP-lysine). Alternativement, des lymphocytes humains sont infectés par le HIV1 préincubé avec les produits à tester, et la culture cellulaire est observée pendant 3 semaines par titrage de la reverse transcriptase. Durant cette période les cultures des lymphocytes humains ne contiennent pas d'anticorps ni d'antigène.

[2] = system: HIV1; test: HIV1 infection of human lymphocytes preincubated with antibodies or NP derivatives, reverse transcriptase in supernatants; type: cell-based; conditions: for activité reverse transcriptase (surnageants de culture): dérivés NP, concentration not given
Experimental: as §1
Les lymphocytes humains, préalablement activés par la PHA, sont incubés en présence des AcN, des anticorps anti-NP et des dérivés NP (DNP-glycine, DNP-lysine) pendant une nuit à 37°C. Le lendemain, le culot cellulaire est mis en présence du HIV1 pendant 1 heure à 37°C au bain-marie et les cellules sont resuspendues dans du milieu nutritif en présence des produits à tester. Les surnageants de culture sont testés pour l'activité reverse transcriptase pendant 3 semaines.

`N[C@@H](CCCCNc1ccc([N+](=O)[O-])cc1[N+](=O)[O-])C(=O)O` [DNP-lysine, DNP-Lysine] was tested, and the Activité reverse transcriptase ([1]; 10^-3M) was 4652, the Activité reverse transcriptase ([1]; 10^-6M) was 3932 and the Activité reverse transcriptase ([1]; 10^-7M) was 7240. The Activité reverse transcriptase ([1]; 10^-9M) was 9262, the “activité reverse transcriptase (surnageants de culture)” value ([2]; 3 jours après l'infection, témoin virus 562) was 936 and the “activité reverse transcriptase (surnageants de culture)” value ([2]; 6 jours après l'infection, témoin virus 1274) was 958. For the same compound, the “activité reverse transcriptase (surnageants de culture)” value ([2]; 10 jours après l'infection, témoin virus 94474) was 1102, the “activité reverse transcriptase (surnageants de culture)” value ([2]; 13 jours après l'infection, témoin virus 63944) was 1466 and the “activité reverse transcriptase (surnageants de culture)” value ([2]; 18 jours après l'infection, témoin virus 73368) was 958. The “activité reverse transcriptase (surnageants de culture)” value ([2]; 20 jours après l'infection, témoin virus 26840) was 1268 and the “activité reverse transcriptase / infectivité virale par rapport au témoin virus (result in words)” value ([2]; lymphocytes incubés avec les produits) was “peuvent conduire à une inhibition totale de l'infectivité virale”.
